The subject of the experiment is P388 leukemia ip, CD2F1 mice, survival T/C. In words: NCI In Vivo Anticancer Drug Screen. Data for tumor model P388 Leukemia (intraperitoneal) in CD2F1 (CDF1) mice. The conditions noted are these: endpoint: median survival time, higher = longer survival. In a few lines: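 Mice carrying the transplanted tumor received test compound or vehicle. Survival was recorded in each group, and the value is the treated-group measurement divided by that of the vehicle-treated control group.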

Setting [1] is: dose: 50.0 mg/kg/injection, schedule: Q01DX009 (ip), vehicle: saline.
Setting [2] is: dose: 200.0 mg/kg/injection, schedule: Q01DX009 (ip), vehicle: saline.
Setting [3] is: dose: 50.0 mg/kg/injection, schedule: Q01DX005 (ip), vehicle: Klucel (hydroxypropylcellulose) (HPC).
[4] abbreviates: dose: 100.0 mg/kg/injection, schedule: Q01DX005 (ip), vehicle: Klucel (hydroxypropylcellulose) (HPC).
Setting [5] is: dose: 200.0 mg/kg/injection, schedule: Q01DX005 (ip), vehicle: Klucel (hydroxypropylcellulose) (HPC).
[6] abbreviates: dose: 50.0 mg/kg/injection, schedule: Q01DX005 (ip), vehicle: saline with Tween-80.
Setting [7] is: dose: 100.0 mg/kg/injection, schedule: Q01DX005 (ip), vehicle: saline with Tween-80.
Setting [8] is: dose: 100.0 mg/kg/injection, schedule: Q04DX003 (ip), vehicle: saline.
Setting [9] is: dose: 200.0 mg/kg/injection, schedule: Q04DX003 (ip), vehicle: saline.
Where [10] appears, read: dose: 400.0 mg/kg/injection, schedule: Q04DX003 (ip), vehicle: saline.
The mark [11] stands for this setting: dose: 50.0 mg/kg/injection, schedule: Q01DX009 (ip), vehicle: saline with Tween-80.
The mark [12] stands for this setting: dose: 100.0 mg/kg/injection, schedule: Q01DX009 (ip), vehicle: saline with Tween-80.
Setting [13] is: dose: 200.0 mg/kg/injection, schedule: Q01DX009 (ip), vehicle: saline with Tween-80.
The mark [14] stands for this setting: dose: 25.0 mg/kg/injection, schedule: Q04DX003 (ip), vehicle: saline.
Where [15] appears, read: dose: 50.0 mg/kg/injection, schedule: Q04DX003 (ip), vehicle: saline.
The mark [16] stands for this setting: dose: 100.0 mg/kg/injection, schedule: Q04DX003 (ip), vehicle: saline with Tween-80.
[17] abbreviates: dose: 100.0 mg/kg/injection, schedule: Q01DX009 (ip), vehicle: saline.
Setting [18] is: dose: 200.0 mg/kg/injection, schedule: Q01DX005 (ip), vehicle: saline with Tween-80.
[19] abbreviates: dose: 400.0 mg/kg/injection, schedule: Q04DX003 (ip), vehicle: saline with Tween-80.

“And” between values parts separate entries of the source, which are not always exact repeats. Equal values may be shown once. Toxic doses and inconclusive results are not listed.

On to `CC(C)c1nc(N)nc(N)n1`, for which the T/C under setting [1] was 93 % of control and the T/C under setting [2] was 90 % of control.

As for `CC1C[N+]2(CNC(=O)c3ccccc3O)CC(C)O[B-]2(c2ccccc2)O1` (stereo not given), the T/C by setting is: under setting [3], 103 % of control; under setting [4], 100 % of control; under setting [5], 103 % of control.

On to `Nc1ncnc2nc(N=Nc3c(O)ccc4ccccc34)[nH]c12`, for which the T/C is 104 % of control under setting [6] and 93 % of control under setting [7].

Consider `O=P(c1ccccc1)(c1ccccc1)c1ccccc1.O=P(c1ccccc1)(c1ccccc1)c1ccccc1.S=C=[N][Sn]([N]=C=S)([N]=C=S)[c]1ccccc1`, for which the T/C by setting is: under setting [8], 105 % of control; under setting [9], 108 % of control; under setting [10], 100 % of control.

`Cc1ccc([NH-])c(C(=O)O)c1.Cc1ccc([NH-])c(C(=O)O)c1.[Cu+2]`: the T/C was 96 % of control (dose: 12.5 mg/kg/injection, schedule: Q01DX005 (ip), vehicle: saline with Tween-80); 100 % of control (dose: 25.0 mg/kg/injection, schedule: Q01DX005 (ip), vehicle: saline with Tween-80); 94 % of control under setting [6].

As to `Cc1nc(N)c2nc(SC(C)C)c(N)nc2n1`, the T/C by setting is: under setting [11], 91 % of control; under setting [12], 91 % of control; under setting [13], 91 % of control.

On to `COc1ccc(C(=O)CCS(=O)(=O)CCC(=O)c2ccc(OC)cc2)cc1`, for which the T/C was 93 % of control under setting [8], 91 % of control under setting [9] and 91 % of control under setting [10].

With `CC(C)CCNc1ncnc2c1cnn2C`, the T/C under setting [14] was 95 % of control, the T/C under setting [15] is 100 % of control and the T/C under setting [16] is 109 % of control.

In the case of `COc1cccc(C(=O)NC[n+]2ccccc2)c1`, the T/C is, setting by setting: under setting [14], 100 % of control; under setting [15], 100 % of control; under setting [8], 109 % of control.

Take `COC(=O)c1[nH]c(=O)c2cccnc2c1O`: the T/C is 104 % of control (dose: 6.25 mg/kg/injection, schedule: Q01DX009 (ip), vehicle: saline); 100 % of control (dose: 12.5 mg/kg/injection, schedule: Q01DX009 (ip), vehicle: saline); 92 % of control (dose: 25.0 mg/kg/injection, schedule: Q01DX009 (ip), vehicle: saline); 103 % of control under setting [11]; 98 % of control under setting [12].

In the case of `CC(NNC(=S)N1CCCC1)c1ccccn1` (stereo not given), the T/C reads like this: under setting [6], 107 % of control; under setting [7], 105 % of control.

Take `Cc1ccc(-c2cs/c(=N\N=C3/CSC(=O)N3Cc3ccccc3)n2-c2ccc(C)cc2)cc1`: the T/C (dose: 100.0 mg/kg/injection, schedule: Q04DX002 (ip), vehicle: Klucel (hydroxypropylcellulose) (HPC)) is 100 % of control; the T/C (dose: 200.0 mg/kg/injection, schedule: Q04DX002 (ip), vehicle: Klucel (hydroxypropylcellulose) (HPC)) is 107 % of control; the T/C (dose: 400.0 mg/kg/injection, schedule: Q04DX002 (ip), vehicle: Klucel (hydroxypropylcellulose) (HPC)) is 102 % of control.

With `CC(=O)CC(C)=O.CCN(CC)CC[C-]=O.[Pd+2]`, the T/C is, setting by setting: (dose: 0.78 mg/kg/injection, schedule: Q04DX003 (ip), vehicle: propolene glycol) 97 % of control; (dose: 1.56 mg/kg/injection, schedule: Q04DX003 (ip), vehicle: propolene glycol) 95 % of control; (dose: 3.13 mg/kg/injection, schedule: Q04DX003 (ip), vehicle: propolene glycol) 97 % of control; (dose: 6.25 mg/kg/injection, schedule: Q04DX003 (ip), vehicle: propolene glycol) 96 % of control; (dose: 12.5 mg/kg/injection, schedule: Q04DX003 (ip), vehicle: other) 123 % of control; (dose: 12.5 mg/kg/injection, schedule: Q04DX003 (ip), vehicle: propolene glycol) 91 % of control. Further, the T/C (dose: 25.0 mg/kg/injection, schedule: Q04DX003 (ip), vehicle: other) was 120 % of control.

Take `CC/C(=N/NS(=O)(=O)c1ccc(C)cc1)c1ccc(C)c(C)c1`: the T/C is 98 % of control under setting [1], 90 % of control under setting [17] and 104 % of control under setting [2].

Turning to `Cc1ccc(Nc2nc(N)nc3nc(N)c(C(N)=O)nc23)cc1`, the T/C reads like this: (dose: 25.0 mg/kg/injection, schedule: Q01DX009 (ip), vehicle: saline with Tween-80) 100 % of control; under setting [11], 100 % of control; under setting [12], 91 % of control.

Take `COc1cc(/C(=C(\CC(=O)O)C(=O)O)c2ccc3c(c2)OCO3)cc(OC)c1OC`: the T/C under setting [3] is 102 % of control and 103 % of control; the T/C under setting [4] is 103 % of control and 111 % of control; the T/C under setting [5] is 99 % of control and 100 % of control.

As to `C#CCN1C(=O)N(CC#C)C(=O)C(CC#C)(C(CC=C)c2ccccc2)C1=O` (stereo not given), the T/C reads like this: (dose: 60.0 mg/kg/injection, schedule: Q01DX005 (ip), vehicle: saline with Tween-80) 100 % of control; (dose: 120.0 mg/kg/injection, schedule: Q01DX005 (ip), vehicle: saline with Tween-80) 100 % of control; (dose: 240.0 mg/kg/injection, schedule: Q01DX005 (ip), vehicle: saline with Tween-80) 96 % of control.

For the molecule `Nc1ccn(C2OC(CCl)C(O)C2O)c(=O)n1` (stereo not given), the T/C by setting is: (dose: 6.25 mg/kg/injection, schedule: Q01DX009 (ip), vehicle: Klucel (hydroxypropylcellulose) (HPC)) 101 % of control; (dose: 12.5 mg/kg/injection, schedule: Q01DX009 (ip), vehicle: Klucel (hydroxypropylcellulose) (HPC)) 106 % of control; (dose: 100.0 mg/kg/injection, schedule: Q01DX009 (ip), vehicle: Klucel (hydroxypropylcellulose) (HPC)) 172 % of control; under setting [17], 154 % of control; (dose: 200.0 mg/kg/injection, schedule: Q01DX009 (ip), vehicle: Klucel (hydroxypropylcellulose) (HPC)) 186 % of control; under setting [2], 164 % of control. Moreover, the T/C (dose: 400.0 mg/kg/injection, schedule: Q01DX009 (ip), vehicle: saline) was 177 % of control.

`NC(CCCCNCC(N)C(=O)O)C(=O)O` (stereo not given): the T/C is 91 % of control under setting [1], 89 % of control under setting [17] and 92 % of control under setting [2].

Take `Nc1ccccc1Sc1ccc2c3c(cccc13)C(=O)N(c1ccccc1)C2=O`: the T/C by setting is: under setting [6], 91 % of control; under setting [7], 90 % of control; under setting [18], 100 % of control.

As to `COc1ccc(/C=C/C(=O)c2ccc(OC)c(OC)c2)cc1OC`, the T/C was 90 % of control under setting [16]; 95 % of control (dose: 200.0 mg/kg/injection, schedule: Q04DX003 (ip), vehicle: saline with Tween-80); 95 % of control under setting [19].

As to `CCn1c2ccccc2c2cc(N=Nc3[nH]c4ccccc4c3CN(C)C)ccc21`, the T/C under setting [11] is 107 % of control and 108 % of control (2×); the T/C under setting [12] was 105 % of control and 106 % of control; the T/C under setting [13] was 100 % of control and 115 % of control and 118 % of control.

As for `NCC(=O)Nc1ccc(O)cc1`, the T/C is, setting by setting: (dose: 100.0 mg/kg/injection, schedule: Q01DX009 (ip), vehicle: saline sonified) 104 % of control; (dose: 100.0 mg/kg/injection, schedule: Q04DX003 (ip), vehicle: saline sonified) 110 % of control; (dose: 200.0 mg/kg/injection, schedule: Q04DX003 (ip), vehicle: saline sonified) 110 % of control; (dose: 264.0 mg/kg/injection, schedule: Q04DX003 (ip), vehicle: saline with Tween-80) 109 % of control; under setting [19], 109 % of control; (dose: 600.0 mg/kg/injection, schedule: Q04DX003 (ip), vehicle: saline with Tween-80) 109 % of control.

With `c1ccc(Nc2ccc(CN3CCOCC3)cc2)cc1`, the T/C (dose: 60.0 mg/kg/injection, schedule: Q01DX005 (ip), vehicle: Klucel (hydroxypropylcellulose) (HPC)) is 105 % of control; the T/C (dose: 120.0 mg/kg/injection, schedule: Q01DX005 (ip), vehicle: Klucel (hydroxypropylcellulose) (HPC)) was 96 % of control; the T/C (dose: 240.0 mg/kg/injection, schedule: Q01DX005 (ip), vehicle: Klucel (hydroxypropylcellulose) (HPC)) is 88 % of control.

For the molecule `CC(=O)O[C@@]1(C)OC(=O)[C@@]2(c3ccccc3)N(C(C)=O)C(C)=C(C#N)[C@@]12C#N`, the T/C is, setting by setting: under setting [6], 100 % of control; under setting [7], 106 % of control; under setting [18], 97 % of control.

The values are drawn from PubChem BioAssay AID330 (DTP/NCI, 2004).
